Converted amounts (≈) assume the structure as drawn.
Key:
MRSA (ATCC BAA-44) [1] = test: Sequential passaging drug resistance development study in MRSA; format: cell-based, Staphylococcus aureus; details: for MIC: Staphylococcus aureus, read-out: initial MIC
From the text: FIG. 4 is a chart showing the drug resistance development of 6c in comparison with vancomycin and ofloxacin in MRSA (ATCC BAA-44);
(§1) Typical clinical antibiotics can readily produce genetic mutants when used to treat the same bacterial over and over again, which is the major cause of antibiotic drug resistance in many pathogenic bacteria these days and of emergence of superbugs. To test if 6c can develop drug resistance in either MSSA (ATCC 29213) or MRSA (ATCC BAA-44), we performed sequential passaging studies with 6c. Briefly, the MIC values for S. aureus strains to be tested were determined first. Then, cells grown in the initial MIC dose of the compound or antibiotics from the previous passage were once again harvested after 24-h incubation period and assayed for a new MIC. The process was repeated for 56 passages against MRSA (ATCC BAA-44).

[2] = tested on: MRSA (ATCC BAA-44 and ATCC BAA-1717); test: microbe, parasite or virus in culture; format: cell-based, Staphylococcus aureus
Experimental: (§2) The MICs were determined by the broth microdilution method by following Clinical and Laboratory Standards Institute (CLSI) guidelines
(§3) Spectroscopic characterization and X-ray structural determination unequivocally confirmed the identities of all the five new compositions of matter, that is compounds denoted as 6a through 6e.

MRSA (ATCC BAA-44) [3] = test: Local wound infection model, topical treatment; format: in vivo, mice (C57BL/6); details: single topical dose 80 μg per wound at day 1 post-infection, CFU at day 2
Experimental: FIG. 7 is a chart showing the effect of the treatment of 6c or vancomycin (via topical treatment, single dose at 80 μg per wound) on the bacterial burden in wounds of mice (C57BL/6 mice, male, 8-12 weeks old) infected by MRSA at day 2 post-wounding (mean±s·d, n=3 mice per group). The CFU counts from homogenized tissue collected from each mouse was run in duplicates. *: p<0.05 vs control;
(§4) To validate the in vivo antibacterial efficacy, we conducted the studies of treating the infections of local wound infection as well as non-lethal systemic infection induced by MRSA. For local infection, a full-thickness, circular wound was generated on the dorsal surface of each mouse (C57BL/6) using a 6-mm sterile biopsy punch after the mouse was anesthetized, followed by inoculating with 1×10^6 CFU MRSA (ATCC BAA-44) in the wounded skin at day 0 and then a defined amount of 6c or vancomycin (80 μg in 40 μL sterile saline per wound) was topically applied once to the wounds of mice at day 1 post-infection. The CFU number of viable bacteria in the wound was quantified at day 2 post-infection. […] The CFU number of viable bacteria was counted at day 2 post-infection from major organs including lung, kidney, spleen, liver, and peritoneal tissues. […]

MRSA (ATCC BAA-44) [4] = test: Checkerboard assay of 6c with oxacillin; format: cell-based, Staphylococcus aureus; details: 6c combined with oxacillin
Experimental: MIC of oxacillin in the presence of 0.6 μg/mL of 6c. ^bMIC of 6c in the presence of 4 μg/mL of oxacillin. The MICs were determined by the broth microdilution method by following Clinical and Laboratory Standards Institute (CLSI) guidelines.
The checkerboard assay was performed in a 96-well plate using the established method. Specifically, the antibiotic oxacillin was 2-fold serially diluted along the row-axis and 6c was 2-fold serially diluted along the column-axis to create a matrix in which each well consists of a combination of both at different concentrations. Each well was inoculated with MRSA (ATCC BAA-44) to yield approximately 5×10^5 CFU/mL in a 100-μL final volume, incubated for 20 h at 37° C. and examined for visibility to determine the MIC. Dividing the MIC of 6c in the presence of antibiotic by the MIC of 6c alone was used to calculate the fractional inhibitory concentration (FIC) of 6c. Similarly, dividing the MIC of antibiotic in the presence of 6c by the MIC of the antibiotic alone was used to calculate the fractional inhibitory concentration (FIC) of the antibiotic. The FIC index was calculated by the summation of both FIC values. The FIC index was interpreted as synergistic, additive, or antagonistic for values of x≤0.5, 0.5<x<4, or ≥4, respectively.

MRSA^vanR = test: MIC against vancomycin-resistant mutant MRSA from day 56 passage (cross-resistance); format: cell-based; details: Staphylococcus aureus
Experimental: as §1

[5] = tested on: biofilm formed by MRSA (ATCC BAA-44); test: Biofilm inhibition assay; format: cell-based, Staphylococcus aureus; details: 24 h
Experimental: FIG. 6 is a chart showing the effect of 6c on the inhibition of biofilm formed by MRSA (ATCC BAA-44). Percentage of viable bacteria in the biofilm formed by MRSA in response to the treatment of Lawsone-derivatives (6a, 6b, 6c, 6d, and 6e) at varying concentrations (0-30 μM) (mean±s·d, n=3 independent experiments);
By observing the antibacterial efficacy of 6c against planktonic phase of MRSA, we next examined whether 6c could be effective against biofilm phase of MRSA. For this, the biofilm inhibition assay was performed using the established procedure. […] For the quantification of biofilm mass, the solutions in the plate with biofilm were replaced with a 100 μL solution containing 0.5% of crystal violet and incubated for 30 min at room temperature in the dark. […] The absorbance of the biofilm was measured at 595 nm using a microplate reader and the results were expressed as percentage changes with respect to the control (without compounds). For the quantification of the number of viable bacteria in the biofilm, the biofilms were gently destroyed and plated on TSA after serial dilutions of each suspension. The number of viable bacteria in the sample was obtained using agar plate counting method as described above and results were expressed as percentage changes with respect to the control.

MSSA (ATCC 29213) = test: Sequential passaging drug resistance development study in MSSA; format: cell-based, Staphylococcus aureus; details: MSSA ATCC 29213, sequential passaging, vs vancomycin and ciprofloxacin
From the text: FIG. 5 is a chart showing the drug resistance development of 6c in comparison with vancomycin and ciprofloxacin in MSSA (ATCC SA 29213);
as §1

[6] = tested on: MSSA (ATCC 29213 and ATCC 6538); test: MIC by broth microdilution (CLSI) against MSSA; format: cell-based, Staphylococcus aureus; details: two strains of MSSA
Experimental: as §2, §3

MRSA = test: Non-lethal systemic infection model, i.p. treatment; format: in vivo, mice (C57BL/6); details: single dose 15 mg/kg i.p. at day 1 post-infection, CFU at day 2; p<0.05
From the text: FIG. 8 is a chart showing the effect of the treatment of 6c (via i.p injection, […]) on the bacterial burden in lung (b), spleen (c), kidney (d), liver (e), and peritoneal (f) tissues of mice (C57BL/6 mice, male, 8-12 weeks old) infected by MRSA (mean±s·d, n=8 mice per group). The CFU counts from homogenized tissue collected from each mouse was run in duplicates. *: p<0.05, **: p<0.01, and ***: p<0.001.
as §4

MRSA^oflR = test: MIC against ofloxacin-resistant mutant MRSA from day 56 passage (cross-resistance); format: cell-based; details: Staphylococcus aureus
Experimental: as §1

[7] = tested on: vancomycin-intermediate and daptomycin non-susceptible strain of MRSA (ATCC 700699); test: MIC by broth microdilution (CLSI) against vancomycin-intermediate, daptomycin non-susceptible MRSA; format: cell-based; details: Staphylococcus aureus, ATCC 700699 / MRSA / VISA
Experimental: as §2, §3

[8] = at 56 passages (end of measurements)

CC1COc2c(N3CCN(C)CC3)c(F)cc3c(=O)c(C(=O)O)cn1c23 (stereo not shown) [ofloxacin]
MIC (MRSA (ATCC BAA-44) [1]): 8 µg/mL (≈ 22.1 µM)
increase of MIC (MRSA (ATCC BAA-44) [1]; after 5 passages): 4 fold
increase of MIC (MRSA (ATCC BAA-44) [1]; at 35 passages): 32 fold
increase of MIC (MRSA (ATCC BAA-44) [1]; [8]): 64 fold

CN[C@H](CC(C)C)C(=O)N[C@H]1C(=O)N[C@@H](CC(N)=O)C(=O)N[C@H]2C(=O)N[C@H]3C(=O)N[C@H](C(=O)N[C@H](C(=O)O)c4cc(O)cc(O)c4-c4cc3ccc4O)[C@H](O)c3ccc(c(Cl)c3)Oc3cc2cc(c3O[C@@H]2O[C@H](CO)[C@@H](O)[C@H](O)[C@H]2O[C@H]2C[C@](C)(N)[C@H](O)[C@H](C)O2)Oc2ccc(cc2Cl)[C@H]1O [vancomycin]
MIC ([2]; Staphylococcus aureus): ~1 µg/mL (≈ 0.69 µM)
MIC (MRSA (ATCC BAA-44) [1]): 1 µg/mL (≈ 0.69 µM)
increase of MIC (MRSA (ATCC BAA-44) [1]; [8]): 128 fold
increase of MIC (MRSA (ATCC BAA-44) [1]; by 51 passages): 4 fold
reduction of MRSA numbers (CFU) in the wound vs control (MRSA (ATCC BAA-44) [3]): ~50%

CCCCc1ccc(CC2=C(O)C(=O)c3ccccc3C2=O)cc1 [6c, 2-[(4-butylphenyl)methyl]-3-hydroxy-[1,4]naphthoquinone]
MIC ([2]; Staphylococcus aureus): 1.25 to 2.5 µg/mL (≈ 3.9 to 7.8 µM)
MIC (MRSA (ATCC BAA-44) [1]): 1.25 µg/mL (≈ 3.9 µM)
increase of MIC (MRSA (ATCC BAA-44) [1]; [8]): 4 fold
change of MIC (MRSA (ATCC BAA-44) [1]; up to 33 passages): largely unchanged
FIC index interpretation (MRSA (ATCC BAA-44) [4]): synergistic (x≤0.5)
FIC (MRSA (ATCC BAA-44) [4]; MRSA ATCC BAA-44, 20 h): 0.31
reduction of MRSA numbers (CFU) in the wound vs control (MRSA (ATCC BAA-44) [3]): 60%
MIC (MRSA^vanR): 5 µg/mL (≈ 15.6 µM)
suppression of biofilm formation ([5]; dose of 1×MIC (5 μM or 1.5 μg/mL)): 40%
suppression of biofilm formation ([5]; dose of 3×MIC (15 μM or 4.5 μg/mL)): 90%
drug resistance profile (MSSA (ATCC 29213)): improved drug resistance profile
antimicrobial activity (MIC) compared with ofloxacin and ciprofloxacin [6]: comparable
bacterial burdens in kidney, liver, and peritoneal tissues vs vehicle control (MRSA): significantly reduced
MIC (MRSA^oflR): 1.25 µg/mL (≈ 3.9 µM)
MIC [7]: 1.25 to 2.5 µg/mL (≈ 3.9 to 7.8 µM)

CCCCCCCCCC(=O)N[C@@H](Cc1c[nH]c2ccccc12)C(=O)N[C@H](CC(N)=O)C(=O)N[C@@H](CC(=O)O)C(=O)N[C@@H]1C(=O)NCC(=O)N[C@@H](CCCN)C(=O)N[C@@H](CC(=O)O)C(=O)N[C@H](C)C(=O)N[C@@H](CC(=O)O)C(=O)NCC(=O)N[C@H](CO)C(=O)N[C@@H]([C@H](C)CC(=O)O)C(=O)N[C@@H](CC(=O)c2ccccc2N)C(=O)O[C@@H]1C [daptomycin]
MIC ([2]; MRSA ATCC BAA-44 and ATCC BAA-1717, broth microdilution): ~1 µg/mL (≈ 0.617 µM)
